# Experimental data as given in US6914045B2, “Glycopeptide antibiotics” (Wyeth Holdings Corporation, priority 2001, dated 2005).
# What was measured:
# [1] = system: Staphylococcus aureus-SMITH (GC 4543); experiment: acute lethal infection in mice; type: in vivo; conditions: acute lethal infection, female CD-1 mice, intraperitoneal challenge, intravenous 30 min. after infection, 7 day survival
# Method: Methods for in Vivo Antibacterial Evaluation
# The therapeutic effects of glycopeptide antibiotics of Formula I are determined against acute lethal infections with S. aureus (strain Smith), a penicillin resistant strain of S. pneumoniae (strain GC 1894), and a vancomycin resistant strain of E. fecalis (strain GC 6189 and GC 2246). Female mice, CD-1 (Charles River Laboratories), 20+/−2 gm, are challenged by intraperitoneal injection of sufficient bacteria (suspended in /trypticase Soy Broth or hog gastric mucin) to kill non-treated controls within 24-48 hr. Antibacterial agents, contained in 0.2 mL of saline or 5% dextrose solution, are administered intravenously 30 min. after infection. Five mice are treated at each dose level. The 7 day survival ratios from 3 separate tests are pooled for calculation of median effective dose (ED50).
# [2] = system: Staphylococcus sp.; experiment: in vitro antibacterial evaluation, MIC by broth dilution; type: cell-based
# Outline: (§1)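 Step 1: dilute antibiotic across 64-0.06 μg/mL in Muller-Hinton II […]. Step 2: inoculate at 5×10^5 CFU/mL.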
# [3] = system: Enterococcus sp.; experiment: as above; type: cell-based; conditions: broth dilution, 18 hours at 35° C.
# Outline: as §1
# [4] = system: Escherichia coli; experiment: as above; type: cell-based; conditions: 18 hours at 35° C.
# Outline: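 MIC is the lowest antibiotic concentration (tested 64-0.06 μg/mL) preventing growth of a 5×10^5 CFU/mL inoculum. Determined by broth dilution in Mueller-Hinton II medium following NCCLS standard M7-A2.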
# [5] = system: Streptococcus sp.; experiment: as above; type: cell-based; conditions: broth dilution, 18 hours at 35° C.
# Outline: as §1
# [6] = anatomic pathology (histopathology of heart and kidney) in mice; type: in vivo; conditions: CD-1 mice, 20 mg/kg intravenously daily for 9 days, necropsy day 10, microscopic histopathology
# Method: Samples of tissues from necropsied mice were formalin-fixed, paraffin-embedded, sectioned, stained with hematoxylin and eosin, and examined microscopically. Histopathologic findings were recorded. These findings were subjectively graded on a scale corresponding to slight, mild, moderate, marked and severe as compared to untreated controls.
# [7] = broth dilution, 18 hours at 35° C.
# [8] = strain ATCC 29213; broth dilution, 18 hours at 35° C.
# [9] = strain GC 1131; broth dilution, 18 hours at 35° C.
# [10] = Enterococcus faecalis (ATCC 29212)
# [11] = Enterococcus faecalis (GC 4552)
smiles,measurement,setting,value
"CCCCCCC(=O)OCC1OC(OC2C(CO)OC(Oc3ccc(CC4NC(=O)C(C(C)c5ccccc5)NC(=O)CNC(=O)C(CO)NC(=O)C(C(O)C5CNC(=N)N5C5OC(CO)C(O)C(O)C5O)NC(=O)C(C(O)C5CNC(=N)N5)NC4=O)cc3)C(O)C2O)C(O)C(O)C1O (stereo not drawn) [Example 97b, Cyclo[glycyl-β-methylphenylalanyl-O-[4-O-(6-O-heptanoylhexopyranosyl)hexopyranosyl]-tyrosyl-3-(2-iminoimidazolidin-4-yl)seryl-3-(3-hexopyranosyl-2-iminoimidazolidin-4-yl)-serylseryl]]","median effective dose (ED50), Staphylococcus aureus-SMITH (GC 4543)",[1],8 mg/kg
same,MIC Coagulase Negative Staphylococcus (GC 4537),[2]; [7],1 µg/mL
same,MIC Coagulase Negative Staphylococcus (GC 4538),[2]; [7],1 µg/mL
same,MIC Coagulase Negative Staphylococcus (GC 4547),[2]; [7],1 µg/mL
same,MIC Coagulase Negative Staphylococcus (GC 4537),"[2]; broth dilution, 18 hours at 35° C.; strain GC 4537",1 µg/mL
same,MIC Coagulase Negative Staphylococcus (GC 4538),"[2]; broth dilution, 18 hours at 35° C.; strain GC 4538",1 µg/mL
same,MIC Coagulase Negative Staphylococcus (GC 4547),"[2]; broth dilution, 18 hours at 35° C.; strain GC 4547",1 µg/mL
same,MIC Staphylococcus aureus (ATCC 29213),[2]; [8],1 µg/mL
same,MIC Staphylococcus aureus (GC 1131),[2]; [9],1 µg/mL
same,MIC Staphylococcus aureus (GC 4535),"[2]; strain GC 4535; broth dilution, 18 hours at 35° C.",1 µg/mL
same,MIC Staphylococcus aureus-SMITH (GC 4536),"[2]; strain GC 4536; broth dilution, 18 hours at 35° C.",0.5 µg/mL
same,MIC Enterococcus faecalis (ATCC 29212),[3]; [10],4 µg/mL
same,MIC Enterococcus faecalis (GC 2242),[3]; Enterococcus faecalis (GC 2242),2 µg/mL
same,MIC Enterococcus faecalis (GC 4552),[3]; [11],4 µg/mL
same,MIC Enterococcus faecalis (ATCC 29212),[3],4 µg/mL
same,MIC Enterococcus faecalis (GC 2242),[3],2 µg/mL
same,MIC Enterococcus faecalis (GC 4552),[3],4 µg/mL
same,MIC Escherichia coli (GC 4559),[4],32 µg/mL
same,MIC Escherichia coli (GC 4560),[4],1 µg/mL
"CC(c1ccccc1)C1NC(=O)CNC(=O)C(CO)NC(=O)C(C(O)C2CN(Cc3ccccc3)C(=N)N2C2OC(CO)C(O)C(O)C2O)NC(=O)C(C(O)C2CNC(=N)N2)NC(=O)C(Cc2ccc(OC3OC(CO)C(OC4OC(CO)C(O)C(O)C4O)C(O)C3O)cc2)NC1=O (stereo not drawn) [Example 59, Cyclo[glycyl-β-methylphenylalanyl-O-(4-O-hexopyranosylhexopyranosyl)tyrosyl-(2-iminoimidazolidin-4-yl)seryl-3-[1-benzyl-3-hexopyranosyl-2-iminoimidazolidin-4-yl]serylseryl]]",MIC Staphylococcus aureus (ATCC 29213),[2]; [8],>128 µg/mL
same,MIC Staphylococcus aureus (GC 1131),[2]; [9],>128 µg/mL
same,MIC Staphylococcus aureus (GC 3051),"[2]; strain GC 3051; broth dilution, 18 hours at 35° C.",>128 µg/mL
same,MIC Staphylococcus aureus (GC 3053),"[2]; strain GC 3053; broth dilution, 18 hours at 35° C.",>128 µg/mL
same,MIC Staphylococcus aureus (GC 4541),"[2]; strain GC 4541; broth dilution, 18 hours at 35° C.",>128 µg/mL
same,MIC Staphylococcus aureus (GC 4542),"[2]; strain GC 4542; broth dilution, 18 hours at 35° C.",>128 µg/mL
same,MIC Staphylococcus aureus-SMITH (GC 4543),"[2]; strain GC 4543; broth dilution, 18 hours at 35° C.",>128 µg/mL
same,MIC Staphylococcus aureus (GC 4544),"[2]; strain GC 4544; broth dilution, 18 hours at 35° C.",>128 µg/mL
same,MIC Staphylococcus aureus (GC 4545),"[2]; strain GC 4545; broth dilution, 18 hours at 35° C.",>128 µg/mL
same,MIC Staphylococcus haemolyticus (GC 4546),"[2]; strain GC 4546; broth dilution, 18 hours at 35° C.",>128 µg/mL
same,MIC Coagulase Negative Staphylococcus (GC 4547),"[2]; strain GC 4547; broth dilution, 18 hours at 35° C.",>128 µg/mL
same,MIC Coagulase Negative Staphylococcus (GC 4548),"[2]; strain GC 4548; broth dilution, 18 hours at 35° C.",>128 µg/mL
same,MIC Coagulase Negative Staphylococcus (GC 4549),"[2]; strain GC 4549; broth dilution, 18 hours at 35° C.",>128 µg/mL
same,MIC Coagulase Negative Staphylococcus (GC 4551),"[2]; strain GC 4551; broth dilution, 18 hours at 35° C.",>128 µg/mL
same,MIC Coagulase Negative Staphylococcus (GC 6257),"[2]; strain GC 6257; broth dilution, 18 hours at 35° C.",>128 µg/mL
same,MIC Enterococcus avium (GC 4558),[3]; Enterococcus avium (GC 4558),128 µg/mL
same,MIC Enterococcus faecalis (ATCC 29212),[3]; [10],>128 µg/mL
same,MIC Enterococcus faecalis (GC 4552),[3]; [11],>128 µg/mL
same,MIC Enterococcus faecalis (GC 4553),[3]; Enterococcus faecalis (GC 4553),>128 µg/mL
same,MIC Enterococcus faecalis (GC 4554),[3]; Enterococcus faecalis (GC 4554),>128 µg/mL
same,MIC Enterococcus faecalis (GC 6189),[3]; Enterococcus faecalis (GC 6189),>128 µg/mL
same,MIC Enterococcus faecium (GC 2243),[3]; Enterococcus faecium (GC 2243),>128 µg/mL
same,MIC Enterococcus faecium (GC 4556),[3]; Enterococcus faecium (GC 4556),>128 µg/mL
same,MIC Enterococcus faecium (GC 4557),[3]; Enterococcus faecium (GC 4557),128 µg/mL
same,MIC Enterococcus avium (GC 4558),[3],128 µg/mL
same,MIC Enterococcus faecalis (ATCC 29212),[3],>128 µg/mL
same,MIC Enterococcus faecalis (GC 2242),[3],>128 µg/mL
same,MIC Enterococcus faecalis (GC 2691),[3],>128 µg/mL
same,MIC Enterococcus faecalis (GC 3059),[3],>128 µg/mL
same,MIC Enterococcus faecalis (GC 4552),[3],>128 µg/mL
same,MIC Enterococcus faecalis (GC 4553),[3],>128 µg/mL
same,MIC Enterococcus faecalis (GC 4554),[3],>128 µg/mL
same,MIC Enterococcus faecalis (GC 6189),[3],>128 µg/mL
same,MIC Enterococcus faecium (GC 2243),[3],>128 µg/mL
same,MIC Enterococcus faecium (GC 4556),[3],>128 µg/mL
same,MIC Enterococcus faecium (GC 4557),[3],128 µg/mL
same,MIC Enterococcus faecalis (GC 2242),[3]; strain GC 2242,>128 µg/mL
same,MIC Enterococcus faecalis (GC 2691),[3]; strain GC 2691,>128 µg/mL
same,MIC Enterococcus faecalis (GC 3059),[3]; strain GC 3059,>128 µg/mL
same,MIC Streptococcus agalactiae (GC 4564),[5],>128 µg/mL
same,MIC Streptococcus pneumoniae (ATCC 6301),[5],128 µg/mL
same,MIC Streptococcus pneumoniae (GC 1894),[5],64 µg/mL
same,MIC Streptococcus pneumoniae (GC 4565),[5],128 µg/mL
same,MIC Streptococcus pyogenes (GC 4563),[5],>128 µg/mL
same,MIC Streptococcus pneumoniae (ATCC 6301),[5]; strain ATCC 6301,128 µg/mL
same,MIC Streptococcus pneumoniae (GC 1894),[5]; strain GC 1894,64 µg/mL
same,MIC Streptococcus pyogenes (GC 4563),[5]; strain GC 4563,>128 µg/mL
same,MIC Streptococcus agalactiae (GC 4564),[5]; strain GC 4564,>128 µg/mL
same,MIC Streptococcus pneumoniae (GC 4565),[5]; strain GC 4565,128 µg/mL
same,MIC Escherichia coli (ATCC 25922),[4],>128 µg/mL
same,MIC Escherichia coli (GC 4559),[4],>128 µg/mL
same,MIC Escherichia coli (GC 4560),[4],>128 µg/mL
same,"Anatomical Pathology (Day 10), Heart",[6],0
same,"Anatomical Pathology (Day 10), Kidney",[6],0
